Literature values in patent US20110321180A1, “COMPOSITIONS AND METHODS TO GENERATE PILOSEBACEOUS UNITS” (University of Southern California, priority 2008, published 2011).

B1: noggin: BMP antagonist protein, UniProt: Q13253 (protein, UniProt Q13253 28-232, looked up)
Noggin: QHYLHIRPAPSDNLPLVDLIEHPDPIFDPKEKDLNETLLRSLLGGHYDPGFMATSPPEDRPGGGGGAAGGAEDLAELDQLLRQRPSGAMPSEIKGLEFSEGLAQGKKQRLSKKLRRKLQMWLWSQTFCPVLYAWNDLGSRFWPRYVKVGSCFSKRSCSVPEGMVCKPSKSVHLTVLRWRCQRRGGQRCGWIPIQYPIISECKCSC

How the values were obtained:
[1] = in published reports
[2] = DMSO

| Molecule | toxicity [1] | solubility [2] | size of hair germs (hair germs) |
| --- | --- | --- | --- |
| c1cc(-c2cnn3cc(-c4ccc(OCCN5CCCCC5)cc4)cnc23)ccn1 [Dorsomorphin] | low toxicity | soluble in DMSO |  |
| B1 |  |  | makes hair germs bigger |
